Measured values: the CheMixHub viscosity set
± gives the uncertainty stated by the source.

Assay: xn = mol fraction of the nth substance listed

c1ccc2ncccc2c1 + Oc1ccccc1
Conditions	viscosity [mPa·s]
293.25 K, 101 kPa, x2 = 0.101	4.595 ± 0.047
293.25 K, 101 kPa, x2 = 0.1895	5.725 ± 0.061
293.25 K, 101 kPa, x2 = 0.2876	7.85 ± 0.09
293.25 K, 101 kPa, x2 = 0.3677	10.58 ± 0.13
293.25 K, 101 kPa, x2 = 0.4518	15.03 ± 0.2
293.25 K, 101 kPa, x2 = 0.5297	20.31 ± 0.29
293.25 K, 101 kPa, x2 = 0.6094	24.52 ± 0.4
293.25 K, 101 kPa, x2 = 0.6758	25.29 ± 0.42
293.25 K, 101 kPa, x2 = 0.7465	23.27 ± 0.38
293.25 K, 101 kPa, x2 = 0.8203	19.41 ± 0.24
293.25 K, 101 kPa, x2 = 0.8731	16.6 ± 0.25
293.25 K, 101 kPa, x2 = 0.9409	13.37 ± 0.19
298 K, 101.3 kPa, x1 = 0.1054	12.7 ± 0.24
298 K, 101.3 kPa, x1 = 0.1999	17.29 ± 0.4
298 K, 101.3 kPa, x1 = 0.3001	20.99 ± 0.54
298 K, 101.3 kPa, x1 = 0.4004	19.77 ± 0.49
298 K, 101.3 kPa, x1 = 0.4996	14.31 ± 0.31
298 K, 101.3 kPa, x1 = 0.5998	10.23 ± 0.17
298 K, 101.3 kPa, x1 = 0.6997	7.295 ± 0.088
298 K, 101.3 kPa, x1 = 0.7997	5.58 ± 0.047
298 K, 101.3 kPa, x1 = 0.9023	4.054 ± 0.042
303 K, 101.3 kPa, x1 = 0.1054	10.2 ± 0.16
303 K, 101.3 kPa, x1 = 0.1999	13.09 ± 0.26
303 K, 101.3 kPa, x1 = 0.3001	15.72 ± 0.36
303 K, 101.3 kPa, x1 = 0.4004	14.98 ± 0.33
303 K, 101.3 kPa, x1 = 0.4996	11.03 ± 0.19
303 K, 101.3 kPa, x1 = 0.5998	8.24 ± 0.11
303 K, 101.3 kPa, x1 = 0.6997	6.11 ± 0.056
303 K, 101.3 kPa, x1 = 0.7997	4.797 ± 0.043
303 K, 101.3 kPa, x1 = 0.9023	3.537 ± 0.031
303.05 K, 101 kPa, x2 = 0.104	3.645 ± 0.036
303.05 K, 101 kPa, x2 = 0.194	4.495 ± 0.045
303.05 K, 101 kPa, x2 = 0.2786	5.605 ± 0.059
303.05 K, 101 kPa, x2 = 0.3683	7.425 ± 0.08
303.05 K, 101 kPa, x2 = 0.4478	9.65 ± 0.11
303.05 K, 101 kPa, x2 = 0.5251	12.21 ± 0.15
303.05 K, 101 kPa, x2 = 0.6009	14.36 ± 0.19
303.05 K, 101 kPa, x2 = 0.672	14.8 ± 0.2
303.05 K, 101 kPa, x2 = 0.744	13.44 ± 0.18
303.05 K, 101 kPa, x2 = 0.8109	11.77 ± 0.12
303.05 K, 101 kPa, x2 = 0.8741	10.1 ± 0.13
303.05 K, 101 kPa, x2 = 0.9388	8.44 ± 0.1
308 K, 101.3 kPa, x1 = 0.1054	8.195 ± 0.11
308 K, 101.3 kPa, x1 = 0.1999	10.47 ± 0.17
308 K, 101.3 kPa, x1 = 0.3001	12.4 ± 0.23
308 K, 101.3 kPa, x1 = 0.4004	11.87 ± 0.21
308 K, 101.3 kPa, x1 = 0.4996	8.92 ± 0.12
308 K, 101.3 kPa, x1 = 0.5998	6.902 ± 0.072
308 K, 101.3 kPa, x1 = 0.6997	5.266 ± 0.042
308 K, 101.3 kPa, x1 = 0.7997	4.143 ± 0.037
308 K, 101.3 kPa, x1 = 0.9023	3.095 ± 0.027
313 K, 101.3 kPa, x1 = 0.1054	6.728 ± 0.07
313 K, 101.3 kPa, x1 = 0.1999	8.655 ± 0.11
313 K, 101.3 kPa, x1 = 0.3001	10.08 ± 0.15
313 K, 101.3 kPa, x1 = 0.4004	9.694 ± 0.14
313 K, 101.3 kPa, x1 = 0.4996	7.31 ± 0.086
313 K, 101.3 kPa, x1 = 0.5998	5.796 ± 0.052
313 K, 101.3 kPa, x1 = 0.6997	4.553 ± 0.039
313 K, 101.3 kPa, x1 = 0.7997	3.608 ± 0.031
313 K, 101.3 kPa, x1 = 0.9023	2.718 ± 0.024
313.15 K, 101 kPa, x2 = 0.104	2.885 ± 0.028
313.15 K, 101 kPa, x2 = 0.194	3.455 ± 0.033
313.15 K, 101 kPa, x2 = 0.2786	4.195 ± 0.041
313.15 K, 101 kPa, x2 = 0.3683	5.335 ± 0.053
313.15 K, 101 kPa, x2 = 0.4478	6.6 ± 0.07
313.15 K, 101 kPa, x2 = 0.5251	7.95 ± 0.08
313.15 K, 101 kPa, x2 = 0.6009	8.87 ± 0.09
313.15 K, 101 kPa, x2 = 0.672	9.04 ± 0.1
313.15 K, 101 kPa, x2 = 0.744	8.39 ± 0.09
313.15 K, 101 kPa, x2 = 0.8109	7.48 ± 0.08
313.15 K, 101 kPa, x2 = 0.8741	6.56 ± 0.07
313.15 K, 101 kPa, x2 = 0.9388	5.525 ± 0.058
318 K, 101.3 kPa, x1 = 0.1054	5.655 ± 0.053
318 K, 101.3 kPa, x1 = 0.1999	7.159 ± 0.087
318 K, 101.3 kPa, x1 = 0.3001	8.328 ± 0.12
318 K, 101.3 kPa, x1 = 0.4004	8.054 ± 0.12
318 K, 101.3 kPa, x1 = 0.4996	5.886 ± 0.054
318 K, 101.3 kPa, x1 = 0.5998	4.902 ± 0.047
318 K, 101.3 kPa, x1 = 0.6997	3.996 ± 0.034
318 K, 101.3 kPa, x1 = 0.7997	3.172 ± 0.028
318 K, 101.3 kPa, x1 = 0.9023	2.416 ± 0.019

CN(C)N + O
293.15 K, 101.3 kPa
Conditions	viscosity [mPa·s]
x1 = 0.0499	2.05 ± 0.06
x1 = 0.1018	3.64 ± 0.12
x1 = 0.1471	6.22 ± 0.21
x1 = 0.2	8.22 ± 0.28
x1 = 0.2498	8.46 ± 0.28
x1 = 0.2984	7.51 ± 0.24
x1 = 0.3466	6.25 ± 0.2
x1 = 0.3995	4.78 ± 0.15
x1 = 0.4482	4.23 ± 0.14
x1 = 0.4994	2.95 ± 0.09
x1 = 0.5955	2.28 ± 0.07
x1 = 0.6986	1.27 ± 0.04
x1 = 0.8064	0.9 ± 0.03
x1 = 0.8999	0.69 ± 0.02

COC(C)=O + CO
298.15 K, 101.33 kPa
Conditions	viscosity [mPa·s]
x1 = 0.0996	0.498 ± 0.019
x1 = 0.2029	0.462 ± 0.017
x1 = 0.3433	0.421 ± 0.016
x1 = 0.4025	0.41 ± 0.016
x1 = 0.4912	0.397 ± 0.015
x1 = 0.6272	0.386 ± 0.015
x1 = 0.7892	0.38 ± 0.015
x1 = 0.8704	0.381 ± 0.015

c1ccc2ncccc2c1 + Cc1cccc(O)c1
viscosity [mPa·s], 101.3 kPa
Conditions	x1 = 0.0998	x1 = 0.198	x1 = 0.3012	x1 = 0.3984	x1 = 0.4984	x1 = 0.5985	x1 = 0.6965	x1 = 0.798	x1 = 0.8948
298 K	15.26 ± 0.35	19.93 ± 0.52	25.3 ± 0.72	22.87 ± 0.62	15.79 ± 0.36	11.02 ± 0.19	7.376 ± 0.094	5.594 ± 0.047	4.358 ± 0.041
303 K	11.51 ± 0.22	15.03 ± 0.34	19.24 ± 0.49	17.85 ± 0.43	12.71 ± 0.24	8.925 ± 0.12	6.266 ± 0.058	4.872 ± 0.042	3.761 ± 0.033
308 K	8.895 ± 0.14	11.46 ± 0.21	15.1 ± 0.33	14.05 ± 0.29	9.986 ± 0.16	7.269 ± 0.082	5.301 ± 0.046	4.223 ± 0.037	3.291 ± 0.028
313 K	6.912 ± 0.084	8.917 ± 0.13	11.94 ± 0.22	11.42 ± 0.2	8.111 ± 0.11	6.172 ± 0.057	4.512 ± 0.042	3.686 ± 0.032	2.959 ± 0.025
318 K	5.586 ± 0.051	7.128 ± 0.083	9.595 ± 0.18	9.188 ± 0.16	6.608 ± 0.065	5.184 ± 0.048	3.835 ± 0.031	3.204 ± 0.029	2.62 ± 0.022

COC(C)=O + CCCCCCCCCC
298.15 K, 101.3 kPa
Conditions	viscosity [mPa·s]
x1 = 0.0803	0.7987 ± 0.0072
x1 = 0.1876	0.7291 ± 0.0066
x1 = 0.3354	0.6485 ± 0.006
x1 = 0.4452	0.5969 ± 0.0055
x1 = 0.476	0.5809 ± 0.0054
x1 = 0.5538	0.5456 ± 0.0051
x1 = 0.618	0.5186 ± 0.0049
x1 = 0.7363	0.4714 ± 0.0046
x1 = 0.8315	0.4356 ± 0.0043
